Measured values reported in patent publication US7732463B2, “4-(2-phenylsulfanyl-phenyl)-piperidine derivatives as serotonin reuptake inhibitors” (H. Lundbeck A/S, priority 2003, dated 2010).

Tests used:
[1] = target: human 5-HT2C-VSV receptors (Homo sapiens, UniProt P28335, I156V/I160V/N158S); assay type: binding
hippocampal 5-HT = conditions: rats, microdialysis, combined with citalopram; cited from earlier work

human 5-HT2C-VSV receptors, sequence (P28335 33-458 I156V/N158S/I160V limits assumed): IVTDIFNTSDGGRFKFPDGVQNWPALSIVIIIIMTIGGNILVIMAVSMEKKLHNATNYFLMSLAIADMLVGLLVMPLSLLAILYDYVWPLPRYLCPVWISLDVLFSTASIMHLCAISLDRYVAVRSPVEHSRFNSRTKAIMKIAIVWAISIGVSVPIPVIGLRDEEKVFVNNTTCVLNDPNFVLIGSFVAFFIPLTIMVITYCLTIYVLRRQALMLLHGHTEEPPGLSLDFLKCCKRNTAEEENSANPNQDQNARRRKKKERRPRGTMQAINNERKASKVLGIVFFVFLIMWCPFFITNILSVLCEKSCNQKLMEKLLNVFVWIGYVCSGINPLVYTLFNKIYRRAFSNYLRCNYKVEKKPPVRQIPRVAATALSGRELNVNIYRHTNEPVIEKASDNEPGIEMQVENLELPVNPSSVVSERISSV

SMILES | affinity to the 5HT2C receptor [1] | increase of hippocampal 5-HT by citalopram (hippocampal 5-HT)
COc1ccc(Sc2ccccc2C2CCNCC2)cc1 [1b, 4-[2-(4-Methoxy-phenylsulfanyl)-phenyl]-piperidine] | good affinity | 
Fc1ccc(C2CCNCC2)c(Sc2ccc(Cl)cc2)c1 [1d, 4-[2-(4-Chloro-phenylsulfanyl)-4-fluoro-phenyl]-piperidine] | good affinity | 
COc1ccc(Sc2cc(F)ccc2C2CCNCC2)cc1 [1e, 4-[2-(4-Methoxy-phenylsulfanyl)-4-fluoro-phenyl]-piperidine] | good affinity | 
Cc1ccc(Sc2ccc(C)cc2C2CCNCC2)cc1 [1f, 4-[2-(4-Methyl-phenylsulfanyl)-5-methyl-phenyl]-piperidine] | good affinity | 
Cc1ccc(Sc2ccc(F)cc2C)c(C2CCNCC2)c1 [1h, 4-[2-(4-Fluoro-2-methyl-phenylsulfanyl)-5-methyl-phenyl]-piperidine] | good affinity | 
COc1ccc(Sc2ccc(C)cc2C2CCNCC2)cc1 [1i, 4-[2-(4-Methoxy-phenylsulfanyl)-5-methyl-phenyl]-piperidine] | good affinity | 
COc1ccc(Sc2ccc(F)cc2C2CCNCC2)c(F)c1 [2a3, 4-[2-(2-Fluoro-4-methoxy-phenylsulfanyl)-5-fluoro-phenyl]-piperidine] | good affinity | 
Clc1ccc(Sc2ccccc2C2CCNCC2)cc1 [2a] | good affinity | 
COc1ccc(Sc2ccc(F)cc2C2CCNCC2)cc1 [2b, 4-[2-(4-Methoxy-phenylsulfanyl)-5-fluoro-phenyl]-piperidine] | good affinity | 
COc1ccc(Sc2c(F)cccc2C2CCNCC2)cc1 [2d, 4-[2-(4-Methoxy-phenylsulfanyl)-3-fluoro-phenyl]-piperidine] | good affinity | 
Cc1ccc(Sc2ccc(Cl)cc2)c(C2CCNCC2)c1 [2g, 4-[2-(4-Chloro-phenylsulfanyl)-5-methyl-phenyl]-piperidine] | good affinity | 
Fc1ccc(Sc2ccc(F)cc2C2CCNCC2)cc1 [2j, 4-[2-(4-Fluoro-phenylsulfanyl)-5-fluoro-phenyl]-piperidine] | good affinity | 
Fc1ccc(Sc2ccc(Cl)cc2F)c(C2CCNCC2)c1 [2p, 4-[2-(4-Chloro-2-fluoro-phenylsulfanyl)-5-fluoro-phenyl]-piperidine] | good affinity | 
Cc1ccc(Sc2ccc(F)cc2C2CCNCC2)c(F)c1 [2q, 4-[2-(2-Fluoro-4-methyl-phenylsulfanyl)-5-fluoro-phenyl]-piperidine] | good affinity | 
Fc1ccc(Sc2ccc(F)cc2C2CCNCC2)c(F)c1 [2t, 4-[2-(2,4-Difluoro-phenylsulfanyl)-5-fluoro-phenyl]-piperidine] | good affinity | 
Cc1ccc(Sc2c(F)cccc2C2CCNCC2)c(C)c1 [2u, 4-[2-(2,4-Dimethyl-phenylsulfanyl)-3-fluoro-phenyl]-piperidine] | good affinity | 
Fc1ccc(Sc2ccc(Br)cc2F)c(C2CCNCC2)c1 [2x, 4-[2-(4-Bromo-2-fluoro-phenylsulfanyl)-5-fluoro-phenyl]-piperidine] | good affinity | 
Fc1ccc(Sc2ccccc2C2CCNCC2)c(Cl)c1 [3a2, 4-[2-(2-Chloro-4-fluoro-phenylsulfanyl)-phenyl]-piperidine] | good affinity | 
Fc1ccc(Sc2ccccc2C2CCNCC2)c(F)c1 [3a4, 4-[2-(2,4-Difluoro-phenylsulfanyl)-phenyl]-piperidine] | good affinity | 
COc1ccc(Sc2ccc(F)cc2)c(C2CCNCC2)c1 [3c2, 4-[2-(4-Fluoro-phenylsulfanyl)-5-methoxy-phenyl]-piperidine] | good affinity | 

SMILES | affinity to the 5HT2C receptor [1] | increase of hippocampal 5-HT by citalopram (hippocampal 5-HT)
COc1ccc(Sc2cccc(F)c2C2CCNCC2)c(C)c1 [3d4, 4-[2-(4-Methoxy-2-methyl-phenylsulfanyl)-6-fluoro-phenyl]-piperidine] | good affinity | 
Cc1ccc(Sc2cccc(F)c2C2CCNCC2)cc1F [3d7, 4-[2-(3-Fluoro-4-methyl-phenylsulfanyl)-6-fluoro-phenyl]-piperidine] | good affinity | 
Fc1cccc(Sc2cccc(Cl)c2)c1C1CCNCC1 [3d10, 4-[2-(3-Chloro-phenylsulfanyl)-6-fluoro-phenyl]-piperidine] | good affinity | 
Fc1cccc(Sc2cccc(F)c2C2CCNCC2)c1 [3d11, 4-[2-(3-Fluoro-phenylsulfanyl)-6-fluoro-phenyl]-piperidine] | good affinity | 
Fc1ccccc1Sc1cccc(F)c1C1CCNCC1 [3d12, 4-[2-(2-Fluoro-phenylsulfanyl)-6-fluoro-phenyl]-piperidine] | good affinity | 
COc1cc(Sc2cccc(F)c2C2CCNCC2)ccc1F [3d13, 4-[2-(4-Fluoro-3-methoxy-phenylsulfanyl)-6-fluoro-phenyl]-piperidine] | good affinity | 
Fc1cc(Cl)ccc1Sc1cccc(F)c1C1CCNCC1 [3d15, 4-[2-(4-Chloro-2-fluoro-phenylsulfanyl)-6-fluoro-phenyl]-piperidine] | good affinity | 
Fc1cccc(Sc2ccc(C(F)(F)F)cc2)c1C1CCNCC1 [3d16, 4-[2-(4-Trifluoromethyl-phenylsulfanyl)-6-fluoro-phenyl]-piperidine] | good affinity | 
Fc1cccc(Sc2cccc(Cl)c2F)c1C1CCNCC1 [3d17, 4-[2-(3-Chloro-2-fluoro-phenylsulfanyl)-6-fluoro-phenyl]-piperidine] | good affinity | 
Cc1ccc(Sc2cccc(F)c2C2CCNCC2)cc1 [3d18, 4-[2-(4-Methyl-phenylsulfanyl)-6-fluoro-phenyl]-piperidine] | good affinity | 
Fc1cccc(Sc2ccc(Cl)cc2)c1C1CCNCC1 [3d19, 4-[2-(4-Chloro-phenylsulfanyl)-6-fluoro-phenyl]-piperidine] | good affinity | 
Cc1ccc(Sc2cccc(F)c2C2CCNCC2)c(F)c1 [3d21, 4-[2-(2-Fluoro-4-methyl-phenylsulfanyl)-6-fluoro-phenyl]-piperidine] | good affinity | 
COc1ccc(Sc2cccc(F)c2C2CCNCC2)c(F)c1 [3d23, 4-[2-(2-Fluoro-4-methoxy-phenylsulfanyl)-6-fluoro-phenyl]-piperidine] | good affinity | 
Fc1ccc(Sc2cccc(F)c2C2CCNCC2)c(F)c1 [3d24, 4-[2-(2,4-Difluoro-phenylsulfanyl)-6-fluoro-phenyl]-piperidine] | good affinity | 
COc1ccc(Sc2cccc(F)c2C2CCNCC2)c(Cl)c1 [3d25, 4-[2-(2-Chloro-4-methoxy-phenylsulfanyl)-6-fluoro-phenyl]-piperidine] | good affinity | 
COc1ccc(Sc2cccc(F)c2C2CCNCC2)cc1 [3d26, 4-[2-(4-Methoxy-phenylsulfanyl)-6-fluoro-phenyl]-piperidine] | good affinity | 
Fc1ccc(Sc2cccc(F)c2C2CCNCC2)cc1 [3d27, 4-[2-(4-Fluoro-phenylsulfanyl)-6-fluoro-phenyl]-piperidine] | good affinity | 
Fc1ccc(C2CCNCC2)c(Sc2ccccc2Cl)c1 [3f2, 4-[2-(2-Chloro-phenylsulfanyl)-4-fluoro-phenyl]-piperidine] | good affinity | 
Fc1ccc(Sc2cc(F)ccc2C2CCNCC2)cc1 [3f3, 4-[2-(4-Fluoro-phenylsulfanyl)-4-fluoro-phenyl]-piperidine] | good affinity | 
COc1ccc(NC(=O)c2ccc(-c3ccc(-c4nnc(C)o4)cc3C)cc2)cc1N1CCN(C)CC1 [GMC 2-29] |  | potentiated
